Results reported in Sander's compilation of Henry's law constants (doi:10.1021/je700612b).

Assay: Henry solubility constant Hcp at 298.15 K (mol/(m3 Pa))
Settings: reference: Ji et al. (2008)

| SMILES | Henry solubility constant Hcp |
| --- | --- |
| CCC(=O)c1ccccc1 [phenyl ethyl ketone] | 0.99 |
| CC(=O)c1ccccc1 [1-phenylethanone] | 1.2 |
| COc1cccc(C=O)c1 [3-methoxybenzaldehyde] | 5.1 |
| Cc1cccc(C=O)c1 [3-methylbenzaldehyde] | 0.35 |
| COc1ccccc1C(C)=O [2′-methoxyacetophenone] | 17 |
| CC(=O)c1ccccc1C [2′-methylacetophenone] | 0.76 |
| CC(=O)c1cccc(C)c1 [3′-methylacetophenone] | 1.5 |
| COc1ccc(C=O)cc1 [4-methoxybenzaldehyde] | 24 |
| COc1ccccc1C=O [2-methoxybenzaldehyde] | 10 |
| CC(=O)c1ccc(C)cc1 [4'-methylacetophenone] | 1.8 |
| COc1cccc(C(C)=O)c1 [3′-methoxyacetophenone] | 19 |
| Cc1ccccc1C=O [2-methylbenzaldehyde] | 0.31 |
| CC(=O)c1ccccc1O [2′-hydroxyacetophenone] | 1 |
